For series [1], the system named is Hepatitis B virus. Put plainly: Compound was evaluated against hepatitis B virus; IA means inactive. It is filed as functional, organism-based.
Series [2] is described as follows: Toxicity against human lymphocytes was determined up to 100 uM concentration; NA means Not Active.
The next series deals with Huh-7. Put plainly: Toxicity against human Huh7 cells was determined up to 100 uM concentration; NA means Not Active. The format is cell-based.
A further series has as its system HepG2. Put plainly: Toxicity against human hepatoma HepG2 cells was determined up to 100 uM concentration; NA means Not Active. It is filed as cell-based.
The test system of series [3] is Hepatitis C virus. Put plainly: Compound was evaluated against hepatitis C virus; IA means inactive. It is filed as functional, organism-based. Particulars: Hepacivirus hominis.
Series [4] deals with Hepatitis B virus. Put plainly: Activity of compound against hepatitis B virus was determined; IA means inactive. It is filed as functional, organism-based.
Series [5] concerns Hepatitis C virus. In words: Activity of compound against hepatitis C virus was determined; IA means inactive. Particulars: Hepacivirus hominis. It is filed as functional, organism-based.

Structures are written as SMILES. Activity calls are given as the source filed them. The rule behind the calls is not given here.

Take `C[C@@H]1OC(CO)OC1n1cc(F)c(N)nc1=O` (stereo not given in full): the result with Hepatitis B virus [1] and with Hepatitis C virus [3] was inactive. Also, the Toxicity result (in series [2]; with Huh-7; in the series with HepG2) was “Not Active” throughout.
With `C[C@H]1O[C@@H](COC(=O)c2ccccc2)O[C@H]1n1cc(F)c(N)nc1=O`, the outcome in the series with Hepatitis B virus [1] and with Hepatitis C virus [3] was inactive. In addition, the Toxicity result (in series [2]; with Huh-7; in the series on HepG2) was “Not Active” in each case.
For `C[C@H]1O[C@@H](COC(=O)c2ccccc2)O[C@@H]1n1cc(F)c(N)nc1=O`, the Toxicity result (in series [2]; with Huh-7; with HepG2) was “Not Active” each time. Besides, the result in the series on Hepatitis B virus [4] and with Hepatitis C virus [5] was inactive.
Take `C[C@H]1O[C@@H](CO)O[C@H]1n1cc(F)c(N)nc1=O`: the result in the series on Hepatitis B virus [1] and in the series on Hepatitis C virus [3] was inactive. In addition, the Toxicity entry (in series [2]; in the series on Huh-7; with HepG2) was “Not Active” each time.
Regarding `C[C@H]1O[C@@H](CO)O[C@@H]1n1cc(F)c(N)nc1=O`, the outcome with Hepatitis B virus [1] and in the series on Hepatitis C virus [3] was inactive. In addition, the Toxicity entry (in series [2]; in the series on Huh-7; in the series with HepG2) was “Not Active” in each case.

These data come from ChEMBL document CHEMBL1147600, “Synthesis of 5'-C-methyl-1',3'-dioxolan-4'-yl nucleosides” (Bioorg Med Chem Lett, 2004).
